Experimental findings from PubChem BioAssay (NCI) are described below.

What all share (experiment): growth of human tumour cells (NCI), 48 h
The test system of test [1] is SNB-75 CNS.
Test [2] deals with 786-0 renal.
The test system of test [3] is TK-10 renal.
For test [4], the system named is NCI-H522 lung.
Test [5] relates to SK-OV-3 ovarian.
Test [6] deals with HOP-62 NSCLC.
The test system of test [7] is RXF 393 renal.
The test system of test [8] is SF-295 CNS.
Test [9] relates to SF-268 CNS.
Test [10] has as its system CCRF-CEM leukemia.
Test [11] concerns SF-539 CNS.
The subject of test [12] is LOX IMVI melanoma.
In test [13] the test system is U251 CNS.
Test [14] relates to NCI-H23 lung.
Test [15] concerns A549 NSCLC.
Test [16] deals with HCC-2998 colon.
The test system of test [17] is EKVX NSCLC.
The subject of test [18] is SNB-19 CNS.

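How tested: cells in 96-well plates exposed to compound for 48 hours at five concentrations. TGI denotes the concentration required for complete inhibition of growth.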

Turning to `COc1ccc(/C=C2\SC(c3ccc(OC)cc3)N(NC(=O)Cc3ccccc3)C2=O)cc1` (stereo not given), the TGI in test [1], in test [2], in test [3], in test [4], in test [5] and in test [6] was above 100 µM throughout. Also, the TGI in [7], in test [8], in [9], in [10], in test [11] and in test [12] was above 100 µM in each case. The TGI in [13], in [14] and in test [15] was above 100 µM in each case.
Take `COc1cc([C@@H]2c3cc4c(cc3[C@@H](NCc3ccccc3)C3COC(=O)[C@@H]32)OCO4)cc(OC)c1O` (stereo not given in full): the TGI in test [1] is 23.8 µM; in test [2], 12.5 µM; in test [3], above 61.7 µM; in [5], above 58.9 µM; in test [6] it was 9.63 µM; in test [7] it was 72.2 µM. Moreover, the TGI in test [8] was 26.5 µM; in test [9], 61.5 µM; in [10], above 27.2 µM; in test [16], 33 µM; in test [17], 38.1 µM; in [11], 26.7 µM. For the same compound, the TGI in [12] is 25.9 µM; in [18] it was 42 µM; in test [13] it was 27.3 µM; in test [14], 23.8 µM; in [15], 15.4 µM.
Take `COc1ccc2nc(NC(=O)C(=O)C(C(=O)c3ccccc3-c3ccccc3)C3OC(=O)c4ccccc43)sc2c1` (stereo not given): the TGI was found to be 35.1 µM in [1]; 31.7 µM in [2]; 48.9 µM in test [3]; 23.8 µM in test [4]; 88 µM in test [5]; 35.3 µM in test [6]. The TGI in test [7] was 23.8 µM; in test [8], above 100 µM; in [9], 63.2 µM; in test [10], above 100 µM; in test [16], 29.1 µM; in [17], 45.9 µM. For the same compound, the TGI in test [11] came to 28.9 µM; in test [12], 35.4 µM; in test [13], 25.9 µM; in test [14], 30.5 µM; in test [15] it was 76.4 µM.
`Cc1ccc2c(c1)SC(c1cc3c(cc1Br)OCO3)S2` (stereo not given): the TGI in [1] was 6.73 µM; in test [2], above 31.6 µM; in test [3], above 31.6 µM; in [4], above 31.6 µM; in test [5], above 31.6 µM; in test [6], above 31.6 µM. Besides, the TGI in test [7], in [8], in test [9], in test [10], in [16] and in [17] was above 31.6 µM in each case. Besides, the TGI was above 31.6 µM in test [11]; above 31.6 µM in test [12]; above 100 µM in test [18]; above 31.6 µM in [13]; above 31.6 µM in test [14]; above 31.6 µM in test [15].
Take `CC(=O)OCC1OC(n2c(=O)n(-c3ccccc3)c(=O)c3cc(Br)cc(Br)c32)C(OC(C)=O)C(OC(C)=O)C1OC(C)=O` (stereo not given): the TGI in test [1], in [2], in [3], in test [4], in test [5] and in [6] was above 100 µM throughout. Moreover, the TGI in test [7], in test [8], in test [9], in [10], in test [16] and in [17] was above 100 µM in each case. The TGI in [11], in [12], in test [18], in test [13], in [14] and in test [15] was above 100 µM each time.
With `O=C(CC(=O)Nc1ccccc1O)Nc1ccccc1O`, the TGI in [1] is 37.2 µM; in test [2], 36 µM; in [3], above 100 µM; in [4], 24.8 µM; in test [5], above 100 µM; in test [6], above 100 µM. The TGI in test [8] was above 100 µM; in test [9] it was 75.8 µM; in [10], above 100 µM; in [16], above 100 µM; in test [17], above 100 µM; in test [11], 35.1 µM. In addition, the TGI in test [18] is above 100 µM; in test [13] it was above 100 µM; in [14], 64.3 µM; in test [15], 95.1 µM.
For `Cc1nc2ccccc2c(=O)n1NC(=S)Nc1cccc(Cl)c1`, the TGI in test [1], in test [2], in test [3], in test [4], in [5] and in test [6] was above 100 µM throughout. The TGI in test [7], in [8], in [9], in test [10], in [11] and in test [12] was above 100 µM throughout. Besides, the TGI in test [13], in [14] and in [15] was above 100 µM each time.
Regarding `CC1=C(C(=O)CC(=O)C(=O)Nc2ccccc2)Sc2ccccc2N1`, the TGI in test [2], in test [4], in [5], in test [6], in [7] and in test [8] was above 100 µM each time. Moreover, the TGI in test [9], in test [10], in test [17], in test [11], in test [12] and in [18] was above 100 µM throughout. Further, the TGI in test [13], in test [14] and in [15] was above 100 µM each time.
For `CCOC(=O)[C@H]1Nc2ccc(Cl)cc2[C@H]2OCC[C@@H]12`, the TGI in [1], in test [2], in test [3], in test [4], in test [5] and in test [6] was above 100 µM in each case. Besides, the TGI in test [7], in [8], in test [9], in test [10], in test [16] and in test [17] was above 100 µM each time. Besides, the TGI in test [11], in test [12], in test [18], in test [13], in test [14] and in [15] was above 100 µM each time.
Regarding `COc1cc(/C=C/c2ccc(OC(C)=O)cc2)cc(OC)c1OC`, the TGI in test [2] was above 100 µM; in test [3], above 100 µM; in test [4], 81.9 µM; in [6], above 100 µM; in test [7], 39.2 µM; in [8], 66.3 µM. For the same compound, the TGI in test [9] was above 100 µM; in test [10] it was above 100 µM; in test [17], above 100 µM; in test [11], 60.8 µM; in test [12], 94.1 µM; in test [18], above 100 µM. The TGI in [13] was above 100 µM; in test [15] it was 85.2 µM.
Take `CC1(Br)C(=O)NC(=O)N(C2CC(N=[N+]=[N-])C(CO)O2)C1N=[N+]=[N-]` (stereo not given): the TGI is above 100 µM in test [1]; above 100 µM in [2]; above 100 µM in test [3]; 66.8 µM in test [4]; above 100 µM in [5]; above 100 µM in test [6]. Also, the TGI in [7], in test [8], in [9], in test [10], in [16] and in test [17] was above 100 µM each time. In addition, the TGI in test [11], in [12], in test [18], in test [13], in [14] and in [15] was above 100 µM in each case.
`Cc1nc(-c2nc(C)c(C(=O)NN(C)C)s2)sc1C(=O)NN(C)C`: the TGI in test [1], in test [2], in test [3], in test [4], in test [5] and in [6] was above 100 µM in each case. Besides, the TGI in [8], in test [9], in test [10], in [16], in [17] and in test [11] was above 100 µM throughout. Moreover, the TGI is 48.9 µM in test [12], above 100 µM in test [18], above 100 µM in test [13] and above 100 µM in test [14].
As to `Cc1ccc(C2(O)CC(c3ccc([N+](=O)[O-])o3)=NN2C(=O)COc2ccccc2Cl)cc1` (stereo not given), the TGI in test [1] was above 75.4 µM; in test [2] it was above 100 µM; in [3], above 86.1 µM; in [4] it was above 48.4 µM; in test [5], above 100 µM; in test [6], 83.5 µM. For the same compound, the TGI in [8] is above 100 µM; in [9], above 76 µM; in [10] it was above 100 µM; in test [16], 38.3 µM; in test [17], 28.8 µM; in test [11] it was 48.4 µM. Besides, the TGI in test [12] was 18.9 µM; in test [18], above 100 µM; in [13] it was 28.2 µM; in test [14], 33.6 µM; in [15], above 100 µM.
Consider `CCCc1c(C(=O)OCC)[nH]c(-c2ccc(-c3[nH]c(C(=O)OCC)c(CCC)c3C(=O)OCC)o2)c1C(=O)OCC`, for which the TGI in [1], in test [2], in test [3], in test [4], in [5] and in [7] was above 100 µM throughout. Also, the TGI in test [8], in test [9], in test [10], in [16], in test [17] and in test [11] was above 100 µM each time. Besides, the TGI in test [12], in [18], in test [13], in test [14] and in test [15] was above 100 µM throughout.
`COC(=O)c1c2c(c(-c3ccccc3)c3c1-c1nc(Cl)ccc1CC3)CCc1ccc(Cl)nc1-2`: the TGI in test [1], in test [2], in [3], in test [4], in [5] and in test [6] was above 100 µM each time. Besides, the TGI in test [7], in [8], in test [9], in test [10], in [16] and in test [17] was above 100 µM in each case. Also, the TGI in test [11], in test [12], in [18], in test [13], in [14] and in [15] was above 100 µM throughout.
Consider `COc1cc(C(=O)C/C(CCC(=O)Nc2ccc(Cl)cc2Cl)=N/NC(=O)C(N)=O)ccc1O`, for which the TGI was 43.7 µM in [1]; above 100 µM in test [2]; above 100 µM in [3]; above 100 µM in [4]; above 100 µM in [5]; above 100 µM in test [6]. The TGI in test [8], in [9], in test [10], in [16], in [17] and in test [11] was above 100 µM each time. In addition, the TGI in test [18], in test [13], in test [14] and in test [15] was above 100 µM in each case.
